SMILES strings stand for the structures.

Experimental findings from patent US7323186B2 (priority 2001, dated 2008) are described below.

Test [1] relates to TSST-1 production by S. aureus FRI-1187. It counts as cell-based, Staphylococcus aureus.
For test [2], the system named is TSST-1 production by S. aureus FRI-1169. The format is cell-based, Staphylococcus aureus.

With `Oc1cc(Cl)ccc1Oc1ccc(Cl)cc1Cl` [Triclosan, triclosan], the “TSST-1 production compared to the control” value in test [1] and in test [2] was “produced less TSST-1” in each case.
